Molecular target: T1, hMC2 receptor (crude hMC2R membranes from CRE-bla-CHO-K1 cells stably expressing hMC2 receptor and hMRAP accessory protein) (Homo sapiens, UniProt Q01718)
T1 construct: crude membrane fractions
Test: hMC2 membrane binding assay ([125I]ACTH (1-39) Tyr23, SPA)
Details: displacement of 0.2 nM [125I]ACTH (1-39) Tyr23 from hMC2R membranes, 1.5 hours at room temperature; read-out: MC2R binding potency
Outline: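 Ki values come from non-linear regression of SPA scintillation counts, with compounds displacing [125I]ACTH(1-39) Tyr23. Membranes come from CRE-bla-CHO-K1 cells stably expressing hMC2 receptor together with hMRAP. They are preincubated with WGA-coated PVT SPA beads in 50 mM HEPES pH 7.4 with 0.20% BSA, Mg2+, Ca2+ and protease inhibitors.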

T1 sequence (Q01718 whole entry): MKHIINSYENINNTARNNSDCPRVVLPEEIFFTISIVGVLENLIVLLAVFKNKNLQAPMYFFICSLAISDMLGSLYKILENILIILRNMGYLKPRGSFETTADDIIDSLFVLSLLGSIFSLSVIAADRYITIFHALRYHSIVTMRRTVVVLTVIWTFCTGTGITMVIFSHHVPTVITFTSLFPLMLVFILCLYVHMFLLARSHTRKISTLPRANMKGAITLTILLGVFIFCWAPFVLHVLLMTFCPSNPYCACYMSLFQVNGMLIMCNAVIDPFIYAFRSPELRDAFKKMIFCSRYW
T1 sequence (Q8TCY5 whole entry partner): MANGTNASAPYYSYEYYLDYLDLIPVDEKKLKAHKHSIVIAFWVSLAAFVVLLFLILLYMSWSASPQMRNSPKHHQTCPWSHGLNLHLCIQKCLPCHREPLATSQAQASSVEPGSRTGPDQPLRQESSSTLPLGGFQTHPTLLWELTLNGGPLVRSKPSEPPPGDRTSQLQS

Ki [nM]	SMILES
10 to 100	CN1CC[C@@H](NC(=O)C2(c3ccc(-c4cc5ccccc5n4C)nc3)CCN(c3ccc(C(F)(F)F)cc3C#N)CC2)C1 [Compound 1-191, 1-[2-cyano-4-(trifluoromethyl)phenyl]-4-[6-(1-methyl-1H-indol-2-yl)pyridin-3-yl]-N-[(3R)-1-methylpyrrolidin-3-yl]piperidine-4-carboxamide]
< 10	CN1CC[C@H](NC(=O)C2(c3cnc(-c4cccn4C)c(F)c3)CCN(c3ccc(C(F)(F)F)cc3F)CC2)C1 [Compound 1-192, 1-[2-fluoro-4-(trifluoromethyl)phenyl]-4-[5-fluoro-6-(1-methyl-1H-pyrrol-2-yl)pyridin-3-yl]-N-[(3S)-1-methylpyrrolidin-3-yl]piperidine-4-carboxamide]
< 10	CCOc1ncccc1-c1ccc(C2(C(=O)N[C@H]3CCN(C)C3)CCN(c3ccc(C(F)(F)F)cc3F)CC2)nn1 [Compound 1-193, 4-[6-(2-ethoxypyridin-3-yl)pyridazin-3-yl]-1-[2-fluoro-4-(trifluoromethyl)phenyl]-N-[(3S)-1-methylpyrrolidin-3-yl]piperidine-4-carboxamide]
< 10	CCOc1ncccc1-c1ccc(C2(C(=O)N[C@H]3CCN(C)C3)CCN(c3ccc(C(F)(F)F)cc3Cl)CC2)nn1 [Compound 1-194, 1-[2-chloro-4-(trifluoromethyl)phenyl]-4-[6-(2-ethoxypyridin-3-yl)pyridazin-3-yl]-N-[(3S)-1-methylpyrrolidin-3-yl]piperidine-4-carboxamide]
< 10	COc1ccc(F)cc1-c1ncc(C2(C(=O)N[C@H]3CCN(C)C3)CCN(c3ccc(C(F)(F)F)cc3C#N)CC2)cc1F [Compound 1-195, 1-[2-cyano-4-(trifluoromethyl)phenyl]-4-[5-fluoro-6-(5-fluoro-2-methoxyphenyl)pyridin-3-yl]-N-[(3S)-1-methylpyrrolidin-3-yl]piperidine-4-carboxamide]
< 10	CNCCNC(=O)C1(c2cnc(-c3ccccc3OC)c(F)c2)CCN(c2ccc(C(F)(F)F)cc2C#N)CC1 [Compound 1-196, 1-[2-cyano-4-(trifluoromethyl)phenyl]-4-[5-fluoro-6-(2-methoxyphenyl)pyridin-3-yl]-N-[2-(methylamino)ethyl]piperidine-4-carboxamide]
< 10	CNCCCNC(=O)C1(c2cnc(-c3ccccc3OC)c(F)c2)CCN(c2ccc(C(F)(F)F)cc2C#N)CC1 [Compound 1-197, 1-[2-cyano-4-(trifluoromethyl)phenyl]-4-[5-fluoro-6-(2-methoxyphenyl)pyridin-3-yl]-N-[3-(methylamino)propyl]piperidine-4-carboxamide]
< 10	COc1ccccc1-c1ncc(C2(C(=O)NCCN(C)C)CCN(c3ccc(C(F)(F)F)cc3C#N)CC2)cc1F [Compound 1-198, 1-[2-cyano-4-(trifluoromethyl)phenyl]-N-[2-(dimethylamino)ethyl]-4-[5-fluoro-6-(2-methoxyphenyl)pyridin-3-yl]piperidine-4-carboxamide]
< 10	COc1ccccc1-c1ncc(C2(C(=O)NCCCN(C)C)CCN(c3ccc(C(F)(F)F)cc3C#N)CC2)cc1F [Compound 1-199, 1-[2-cyano-4-(trifluoromethyl)phenyl]-N-[3-(dimethylamino)propyl]-4-[5-fluoro-6-(2-methoxyphenyl)pyridin-3-yl]piperidine-4-carboxamide]
< 10	CCOc1ccccc1-c1ncc(C2(C(=O)N[C@H]3CCN(C)C3)CCN(c3ccc(C(F)(F)F)cc3F)CC2)cc1F [Compound 1-200, 4-[6-(2-ethoxyphenyl)-5-fluoropyridin-3-yl]-1-[2-fluoro-4-(trifluoromethyl)phenyl]-N-[(3S)-1-methylpyrrolidin-3-yl]piperidine-4-carboxamide]

Continued, molecule first:

SMILES	Ki [nM]
CN1CC[C@H](NC(=O)C2(c3ccc(-c4cccn4C)nc3)CCN(c3ccc(C(F)(F)F)cc3F)CC2)C1 [Compound 1-173, 1-[2-fluoro-4-(trifluoromethyl)phenyl]-4-[6-(1-methyl-1H-pyrrol-2-yl)pyridin-3-yl]-N-[(3S)-1-methylpyrrolidin-3-yl]piperidine-4-carboxamide]	< 10
CCOc1ccccc1-c1ccc(C2(C(=O)N[C@H]3CCN(C)C3)CCN(c3ccc(C(F)(F)F)cc3F)CC2)nn1 [Compound 1-174, 4-[6-(2-ethoxyphenyl)pyridazin-3-yl]-1-[2-fluoro-4-(trifluoromethyl)phenyl]-N-[(3S)-1-methylpyrrolidin-3-yl]piperidine-4-carboxamide]	< 10
CCOc1ccccc1-c1ccc(C2(C(=O)N[C@H]3CCN(C)C3)CCN(c3ccc(C(F)(F)F)cc3Cl)CC2)nn1 [Compound 1-175, 1-[2-chloro-4-(trifluoromethyl)phenyl]-4-[6-(2-ethoxyphenyl)pyridazin-3-yl]-N-[(3S)-1-methylpyrrolidin-3-yl]piperidine-4-carboxamide]	< 10
CN1CC[C@H](NC(=O)C2(c3ccc(-c4ccccn4)nc3)CCN(c3ccc(C(F)(F)F)cc3C#N)CC2)C1 [Compound 1-176, 4-{[2,2′-bipyridin]-5-yl}-1-[2-cyano-4-(trifluoromethyl)phenyl]-N-[(3S)-1-methylpyrrolidin-3-yl]piperidine-4-carboxamide]	10 to 100
Cc1cccnc1-c1ccc(C2(C(=O)N[C@@H]3CCN(C)C3)CCN(c3ccc(C(F)(F)F)cc3C#N)CC2)cn1 [Compound 1-177, 1-[2-cyano-4-(trifluoromethyl)phenyl]-4-{3′-methyl-[2,2′-bipyridin]-5-yl}-N-[(3R)-1-methylpyrrolidin-3-yl]piperidine-4-carboxamide]	100 to 1000
COc1cccnc1-c1ccc(C2(C(=O)N[C@H]3CCN(C)C3)CCN(c3ccc(C(F)(F)F)cc3C#N)CC2)cn1 [Compound 1-178, 1-[2-cyano-4-(trifluoromethyl)phenyl]-4-{3′-methoxy-[2,2′-bipyridin]-5-yl}-N-[(3S)-1-methylpyrrolidin-3-yl]piperidine-4-carboxamide]	10 to 100
COc1ncccc1-c1ccc(C2(C(=O)N[C@H]3CCN(C)C3)CCN(c3ccc(C(F)(F)F)cc3C#N)CC2)cn1 [Compound 1-179, 1-[2-cyano-4-(trifluoromethyl)phenyl]-4-{2′-methoxy-[2,3′-bipyridin]-5-yl}-N-[(3S)-1-methylpyrrolidin-3-yl]piperidine-4-carboxamide]	< 10
CN1CC[C@H](NC(=O)C2(c3ccc(-c4cccnc4C4CC4)nc3)CCN(c3ccc(C(F)(F)F)cc3C#N)CC2)C1 [Compound 1-180, 1-[2-cyano-4-(trifluoromethyl)phenyl]-4-{2′-cyclopropyl-[2,3′-bipyridin]-5-yl}-N-[(3S)-1-methylpyrrolidin-3-yl]piperidine-4-carboxamide]	< 10
CN1CC[C@H](NC(=O)C2(c3ccc(-c4ncoc4C4CC4)nc3)CCN(c3ccc(C(F)(F)F)cc3C#N)CC2)C1 [Compound 1-182, 1-[2-cyano-4-(trifluoromethyl)phenyl]-4-[6-(5-cyclopropyl-1,3-oxazol-4-yl)pyridin-3-yl]-N-[(3S)-1-methylpyrrolidin-3-yl]piperidine-4-carboxamide]	10 to 100
COc1ccccc1-c1ccc(C2(C(=O)N[C@H]3CCN(C)C3)CCN(c3ccc(C(F)(F)F)cc3C#N)CC2)nn1 [Compound 1-183, 1-[2-cyano-4-(trifluoromethyl)phenyl]-4-[6-(2-methoxyphenyl)pyridazin-3-yl]-N-[(3S)-1-methylpyrrolidin-3-yl]piperidine-4-carboxamide]	< 10
CCOC(=O)N1CC[C@H](NC(=O)C2(c3ccc(-c4cccn4C)nc3)CCN(c3ccc(C(F)(F)F)cc3C#N)CC2)C1 [Compound 1-184, ethyl (3S)-3-{1-[2-cyano-4-(trifluoromethyl)phenyl]-4-[6-(1-methyl-1H-pyrrol-2-yl)pyridin-3-yl]piperidine-4-amido}pyrrolidine-1-carboxylate]	100 to 1000
CCOc1ncccc1-c1ccc(C2(C(=O)N[C@H]3CCN(C)C3)CCN(c3ccc(C(F)(F)F)cc3F)CC2)cn1 [Compound 1-186, 4-{2′-ethoxy-[2,3′-bipyridin]-5-yl}-1-[2-fluoro-4-(trifluoromethyl)phenyl]-N-[(3S)-1-methylpyrrolidin-3-yl]piperidine-4-carboxamide]	< 10
Cn1cccc1-c1ccc(C2(C(=O)N[C@@H]3CN4CCC3CC4)CCN(c3ccc(C(F)(F)F)cc3C#N)CC2)cn1 [Compound 1-187, N-[(3S)-1-azabicyclo[2.2.2]octan-3-yl]-1-[2-cyano-4-(trifluoromethyl)phenyl]-4-[6-(1-methyl-1H-pyrrol-2-yl)pyridin-3-yl]piperidine-4-carboxamide]	< 10
Cn1cccc1-c1ccc(C2(C(=O)N[C@H]3CN4CCC3CC4)CCN(c3ccc(C(F)(F)F)cc3C#N)CC2)cn1 [Compound 1-188, N-[(3R)-1-azabicyclo[2.2.2]octan-3-yl]-1-[2-cyano-4-(trifluoromethyl)phenyl]-4-[6-(1-methyl-1H-pyrrol-2-yl)pyridin-3-yl]piperidine-4-carboxamide]	10 to 100
COc1nc2ccccc2cc1-c1ccc(C2(C(=O)N[C@@H]3CCN(C)C3)CCN(c3ccc(C(F)(F)F)cc3C#N)CC2)cn1 [Compound 1-189, 1-[2-cyano-4-(trifluoromethyl)phenyl]-4-[6-(2-methoxyquinolin-3-yl)pyridin-3-yl]-N-[(3R)-1-methylpyrrolidin-3-yl]piperidine-4-carboxamide]	< 10
CN1CC[C@@H](NC(=O)C2(c3ccc(-c4cccc5ccn(C)c45)nc3)CCN(c3ccc(C(F)(F)F)cc3C#N)CC2)C1 [Compound 1-190, 1-[2-cyano-4-(trifluoromethyl)phenyl]-4-[6-(1-methyl-1H-indol-7-yl)pyridin-3-yl]-N-[(3R)-1-methylpyrrolidin-3-yl]piperidine-4-carboxamide]	10 to 100

From patent publication US12492181B2, “Gem-disubstituted piperidine melanocortin subtype-2 receptor (MC2R) antagonists and uses thereof” (Crinetics Pharmaceuticals, Inc., priority 2019, dated 2025)
